This passage reports IC50 results from patent US9120785B2, “Pyridyl aminopyridines as Syk inhibitors” (Merck Sharp & Dohme Corp., priority 2011, dated 2015).

This experiment has as its target recombinant human GST-Syk (Homo sapiens (Human), UniProt P43405). Put plainly: Homogeneous Time-Resolved Fluorescence (HTRF) assay for the recombinant human Syk enzyme. Type of experiment: biochemical. Conditions: recombinant human GST-Syk 5 pM, ATP 25 μM. How it is done: Homogeneous Time-Resolved Fluorescence (HTRF) Assay for the Recombinant Human Syk Enzyme:
A recombinant GST-hSyk fusion protein was used to measure potency of compounds to inhibit human Syk activity. The recombinant human GST-Syk ([…] #08-176) (5 pM final concentration) was incubated with various concentrations of the inhibitor diluted in DMSO (0.1% final concentration) for 10 minutes at room temperature in 15 mM Tris-HCl (pH 7.5), 0.01% tween 20, 2 mM DTT in 384 well plate format. To initiate the reaction the biotinylated substrate peptide (250 nM final concentration) that contains the phosphorylation site for Syk was added with magnesium (5 mM final concentration) and ATP (25 μM final concentration). Final volume of the reaction was 10 μL. Phosphorylation of the peptide was allowed to proceed for 45 minutes at room temperature. To quench the reaction and detect the phosphorylated product, 2 nM of a Europium-anti-phosphotyrosine antibody (Perkin Elmer #AD0161) and 70 nM SA-APC (Perkin-Elmer #CR130-100) were added together in 15 mM Tris pH 7.5, 40 mM EDTA, 0.01% tween 20. Final volume of the quenching solution was 10 μL. The resulting HTRF signal was measured after 30 minutes on an EnVision (Perkin-Elmer) reader using a time-resolved fluorescence protocol.

The mark [1] stands for this setting: class symbols, read-out: rhSyk activity (IC50).

As a reminder, the IC50 is the midpoint of a concentration-inhibition curve.

Where two headings read alike, the source gives them in different places.

Consider `Cc1ccnc(Nc2cc(C)cc(-c3cnc(C(C)(O)[C@H]4CC[C@H](C(=O)O)C(C)(C)C4)s3)n2)c1` (stereo partly drawn) [Example 14-34, (1S,4S)-4-[1-hydroxy-1-(5-{4-methyl-6-[(4-methylpyridin-2-yl)amino]pyridin-2-yl}-1,3-thiazol-2-yl)ethyl]-2,2-dimethylcyclohexanecarboxylic acid], for which, under setting [1], the IC50 was at most 100 nM.

For the molecule `Cc1cc(Nc2cccc(-c3cnc(C(C)(O)[C@H]4CC[C@H](C(=O)O)CC4)s3)n2)ncc1F` (single isomer, unassigned) [Example 6, trans-4-[(1R or 1S)-1-(5-{6-[(5-Fluoro-4-methylpyridin-2-yl)amino]pyridin-2-yl}-1,3-thiazol-2-yl)-1-hydroxyethyl]cyclohexanecarboxylic acid], the IC50 under setting [1] was at most 100 nM.

With `Cc1cc(Nc2cc(C(F)(F)F)ccn2)nc(-c2cnc(C(O)(C3CC3)[C@H]3CC[C@H](C(=O)O)CC3)s2)c1` (single isomer, unassigned) [Example 14-18, trans-4-{cyclopropyl(hydroxy)[5-(4-methyl-6-{[4-(trifluoromethyl)pyridin-2-yl]amino}pyridin-2-yl)-1,3-thiazol-2-yl]methyl}cyclohexanecarboxylic acid], the IC50 under setting [1] was at most 100 nM.

Regarding `Cc1cc(Nc2cc(C(C)C)ccn2)nc(-c2cnc(C(C)(O)[C@H]3CC[C@H](C(=O)O)CC3)s2)c1` (relative stereo) [Example 14-8, trans-4-{1-hydroxy-1-[5-(4-methyl-6-{[4-(propan-2-yl)pyridin-2-yl]amino}pyridin-2-yl)-1,3-thiazol-2-yl]ethyl}cyclohexanecarboxylic acid], under setting [1], the IC50 is at most 100 nM.

`CCC(O)(c1ncc(-c2cc(C)cc(Nc3cc(OC(C)C)ccn3)n2)s1)[C@H]1CC[C@H](C(=O)O)CC1` (single isomer, unassigned) [Example 14-21, trans-4-{1-hydroxy-1-[5-(4-methyl-6-{[4-(propan-2-yloxy)pyridin-2-yl]amino}pyridin-2-yl)-1,3-thiazol-2-yl]propyl}cyclohexanecarboxylic acid]: the IC50 under setting [1] is at most 100 nM.

For `COc1ccnc(Nc2cc(C)cc(-c3cnc(C(C)(O)[C@H]4CC[C@H](C(=O)O)C(C)(C)C4)s3)n2)c1` (stereo partly drawn) [Example 14-35, (1S,4S)-4-[1-hydroxy-1-(5-{6-[(4-methoxypyridin-2-yl)amino]-4-methylpyridin-2-yl}-1,3-thiazol-2-yl)ethyl]-2,2-dimethylcyclohexanecarboxylic acid], the IC50 under setting [1] was at most 100 nM.

As to `Cc1cc(Nc2cc(OC(C)C)ccn2)nc(-c2cnc(C(O)([C@H]3CC[C@H](C(=O)O)CC3)C(F)(F)F)s2)c1` (single isomer, unassigned) [Example 14-26, trans-4-{2,2,2-trifluoro-1-hydroxy-1-[5-(4-methyl-6-{[4-(propan-2-yloxy)pyridin-2-yl]amino}pyridin-2-yl)-1,3-thiazol-2-yl]ethyl}cyclohexanecarboxylic acid], under setting [1], the IC50 is at most 100 nM.

`Cc1cc(Nc2cc(C(F)F)ccn2)nc(-c2cnc(C(C)(O)[C@H]3CC[C@H](C(=O)O)C(C)(C)C3)s2)c1` (stereo partly drawn) [Example 14-37, (1S,4S)-4-{1-[5-(6-{[4-(difluoromethyl)pyridin-2-yl]amino}-4-methylpyridin-2-yl)-1,3-thiazol-2-yl]-1-hydroxyethyl}-2,2-dimethylcyclohexanecarboxylic acid]: the IC50 under setting [1] is at most 100 nM.

Take `Cc1cc(Nc2cc(C(F)(F)F)ccn2)nc(-c2cnc(C(O)(C3CC3)[C@H]3CC[C@H](C(=O)O)CC3)s2)c1` (single isomer, unassigned) [Example 14-17, trans-4-{cyclopropyl(hydroxy)[5-(4-methyl-6-{[4-(trifluoromethyl)pyridin-2-yl]amino}pyridin-2-yl)-1,3-thiazol-2-yl]methyl}cyclohexanecarboxylic acid]: the IC50 under setting [1] was at most 100 nM.

On to `CC1(C)C[C@@H](C(C)(O)c2ncc(-c3cccc(Nc4cc(C(F)(F)F)ccn4)n3)s2)CC[C@@H]1C(=O)O` (stereo partly drawn) [Example 14-45, (1S,4S)-4-{1-hydroxy-1-[5-(6-{[4-(trifluoromethyl)pyridin-2-yl]amino}pyridin-2-yl)-1,3-thiazol-2-yl]ethyl}-2,2-dimethylcyclohexanecarboxylic acid], for which, under setting [1], the IC50 is at most 100 nM.

On to `Cc1cc(Nc2cc(C(F)(F)F)ccn2)nc(-c2cnc(C(C)(O)C3CCC(C(=O)O)C(C)C3)s2)c1` (centres unmarked) [Example 15-17, 4-{1-hydroxy-1-[5-(4-methyl-6-{[4-(trifluoromethyl)pyridin-2-yl]amino}pyridin-2-yl)-1,3-thiazol-2-yl]ethyl}-2-methylcyclohexanecarboxylic acid], for which the IC50 under setting [1] was at most 100 nM.

For `CCCCOC(=O)[C@H]1CC[C@H](C(C)(O)c2ncc(-c3cc(C)cc(Nc4cc(C(F)(F)F)ccn4)n3)s2)CC1` (single isomer, unassigned) [Example 14, Step 1, butyl trans-4-{(1R or 1S)-1-hydroxy-1-[5-(4-methyl-6-{[4-(trifluoromethyl)pyridin-2-yl]amino}pyridin-2-yl)-1,3-thiazol-2-yl]ethyl}cyclohexanecarboxylate], the IC50 under setting [1] fell in the range of 100 to 1000 nM.

Turning to `CCC(O)(c1ncc(-c2cc(C)cc(Nc3cc(C4CC4)ccn3)n2)s1)[C@H]1CC[C@H](C(=O)O)CC1` (mixture of isomers) [Example 1, racemic, trans-4-[1-(5-{6-[(4-Cyclopropylpyridin-2-yl)amino]-4-methylpyridin-2-yl}-1,3-thiazol-2-yl)-1-hydroxypropyl]cyclohexanecarboxylic acid], the IC50 under setting [1] was at most 100 nM.

Turning to `COc1ccnc(Nc2cc(C)cc(-c3cnc(C(C)(O)[C@H]4CC[C@H](C(=O)O)CC4)s3)n2)c1` (relative stereo) [Example 14-3, trans-4-[1-hydroxy-1-(5-{6-[(4-methoxypyridin-2-yl)amino]-4-methylpyridin-2-yl}-1,3-thiazol-2-yl)ethyl]cyclohexanecarboxylic acid], under setting [1], the IC50 was at most 100 nM.

Consider `Cc1cc(Nc2cc(C(F)(F)F)ccn2)nc(-c2cnc([C@](C)(O)[C@H]3CNC(=O)C3)s2)c1` [Example 14-56, (4R)-4-{(1R)-1-hydroxy-1-[5-(4-methyl-6-{[4-(trifluoromethyl)pyridin-2-yl]amino}pyridin-2-yl)-1,3-thiazol-2-yl]ethyl}pyrrolidin-2-one], for which the IC50 under setting [1] was at most 100 nM.

On to `CC(O)(c1ncc(-c2cccc(Nc3cc(C(F)F)ccn3)n2)s1)[C@H]1CC[C@H](C(=O)O)CC1` (relative stereo) [Example 14-42, trans-4-{1-[5-(6-{[4-(difluoromethyl)pyridin-2-yl]amino}pyridin-2-yl)-1,3-thiazol-2-yl]-1-hydroxyethyl}cyclohexanecarboxylic acid], for which, under setting [1], the IC50 is at most 100 nM.

With `Cc1cc(Nc2cc(C(F)(F)F)ccn2)nc(-c2cnc([C@@](C)(O)[C@H]3CNC(=O)C3)s2)c1` [Example 14-55, (4R)-4-{(1S)-1-hydroxy-1-[5-(4-methyl-6-{[4-(trifluoromethyl)pyridin-2-yl]amino}pyridin-2-yl)-1,3-thiazol-2-yl]ethyl}pyrrolidin-2-one], the IC50 under setting [1] was at most 100 nM.

In the case of `Cc1cc(Nc2cc(C(F)(F)F)ccn2)nc(-c2cnc(C(O)([C@H]3CC[C@H](C(=O)O)CC3)C(F)(F)F)s2)c1` (single isomer, unassigned) [Example 14-20, trans-4-{2,2,2-trifluoro-1-hydroxy-1-[5-(4-methyl-6-{[4-(trifluoromethyl)pyridin-2-yl]amino}pyridin-2-yl)-1,3-thiazol-2-yl]ethyl}cyclohexanecarboxylic acid], the IC50 under setting [1] was at most 100 nM.

In the case of `CCC(O)(c1ncc(-c2cc(C)cc(Nc3cc(C4CC4)ccn3)n2)s1)[C@H]1CC[C@H](C(N)=O)CC1` (mixture of isomers) [Example 2, racemic mixture, trans-4-[1-(5-{6-[(4-cyclopropylpyridin-2-yl)amino]-4-methylpyridin-2-yl}-1,3-thiazol-2-yl)-1-hydroxypropyl]cyclohexanecarboxamide], the IC50 reads like this: (10-dose titration, read-out: rhSyk (nM) IC50) 3.1 nM; under setting [1], at most 100 nM.

With `CC(O)(c1ncc(-c2cccc(Nc3cc(C(F)(F)F)ccn3)n2)s1)[C@H]1CC[C@H](C(=O)O)CC1` (single isomer, unassigned) [Example 7, trans-4-{(1R or 1S)-1-hydroxy-1-[5-(6-{[4-(trifluoromethyl)pyridin-2-yl]amino}pyridin-2-yl)-1,3-thiazol-2-yl]ethyl}cyclohexanecarboxylic acid], the IC50 under setting [1] is at most 100 nM.

For `CC(O)(c1ncc(-c2cc(C(F)F)cc(Nc3cc(C(F)(F)F)ccn3)n2)s1)[C@H]1CC[C@H](C(=O)O)CC1` (single isomer, unassigned) [Example 14-53, trans-4-{1-[5-(4-(difluoromethyl)-6-{[4-(trifluoromethyl)pyridin-2-yl]amino}pyridin-2-yl]-1,3-thiazol-2-yl}-1-hydroxyethyl)cyclohexanecarboxylic acid], the IC50 under setting [1] is at most 100 nM.

For the molecule `COc1ccnc(Nc2cccc(-c3cnc(C(C)(O)[C@H]4CC[C@H](C(=O)O)CC4)s3)n2)c1` (relative stereo) [Example 14-41, trans-4-[1-hydroxy-1-(5-{6-[(4-methoxypyridin-2-yl)amino]pyridin-2-yl}-1,3-thiazol-2-yl)ethyl]cyclohexanecarboxylic acid], under setting [1], the IC50 is at most 100 nM.
